# Source: US6001353A, “20α-alpha-hydroxy steroid dehydrogenase related material and methods” (priority 1997, dated 1999)
# Columns and labels:
# recombinant 20α-HSD [1] = target: T1, recombinant 20α-HSD (Rattus norvegicus, UniProt P51652); assay: Substrate specificity, oxidation/reduction of steroid substrates, spectrophotometric; format: biochemical; design: a DNA fragment of 1.2 Kb containing the entire coding region of 20α-HSD; GST (E. coli preparation only; removed with thrombin) (N, cleaved yes); made in house; host or cells: E. coli DH5α (pGEX-4T-2) and Sf-9 insect cells (baculovirus, pBlueBacIII); settings: for Recombinant 20α HSD activity, expressed in E. coli: enzyme expressed in E. coli; for Recombinant 20α HSD activity, expressed in E. coli / Recombinant 20α HSD activity, expressed in Sf-9 cells: spectrophotometric; for Recombinant 20α HSD activity, expressed in Sf-9 cells: enzyme expressed in Sf-9 cells
# T1 sequence (P51652 1-323): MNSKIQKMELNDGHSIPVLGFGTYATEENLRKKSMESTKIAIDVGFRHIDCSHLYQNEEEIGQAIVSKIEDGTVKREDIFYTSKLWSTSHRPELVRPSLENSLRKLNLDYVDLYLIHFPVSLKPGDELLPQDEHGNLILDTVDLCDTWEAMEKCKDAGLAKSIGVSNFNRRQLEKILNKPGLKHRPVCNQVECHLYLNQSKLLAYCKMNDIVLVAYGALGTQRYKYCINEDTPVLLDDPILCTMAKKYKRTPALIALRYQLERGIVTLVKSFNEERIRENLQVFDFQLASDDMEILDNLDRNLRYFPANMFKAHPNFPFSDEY
# Experimental: (§1) Enzyme activity of the recombinant 20α-HSD was determined by the rate of conversion of [1-2^3 H]-20α-hydroxy-pregn-4-ene-3-one (20α-hydroxprogesterone) to [1,2^3 H]progesterone in the presence of NADPH as described by Jones & Hsueh [J. Biol. Chem. 256:1248-1254 (1981)]. Enzyme activity was measured in this manner due to the fact that in an in vitro setting the reaction may be reversed, i.e. conversion of 20α-hydroxyprogesterone to progesterone. The assay mixtures (0.05 ml) contained 100 μM [1,2^3 H]hydroxyprogesterone [Dupont-New England Nuclear Research Products, Boston Mass.] […] Following incubation at 37° C. for 30 minutes, the [^3 H]progesterone content of each sample was determined after isolation by thin layer chromatography isolation. One unit of enzyme activity is defined as that amount of enzyme catalyzing the formation of 1 nmol of [^3 H]progesterone/minute from [1,2^3 H]hydroxyprogesterone. Specific activity is expressed as units/min/mg protein. The protein concentration was determined by the Bradford method using bovine serum albumin [Sigma Chemical Co, St. Louis, Mo.] as the standard [Bradford, Anal. Biochem. 72:248-254 (1976)]. […] Acta. 799:51-58 (1984); Noda et al., Biochim Biophys. Acta. 1079:112-118 (1991)].
# To determine substrate specificity of recombinant 20α-HSD, the oxidation/reduction of several steroid substrates was also studied. […] Acta. 799:51-58 (1984); Noda et al., Biochim Biophys. Acta. 1079:112-118 (1991)]. […] However, compared to 20α-hydroxyprogesterone, 20α-HSD activity toward 17α-hydroxyprogesterone was lower, and its activity with progesterone was relatively higher.
# The enzyme activity was measured spectrophotometrically. The data are expressed as the mean of duplicate determinations from three separate experiments. ND, not detected.
# recombinant 20α-HSD [2] = target: T1, recombinant 20α-HSD; assay: Steady state kinetic constants (Lineweaver-Burk); format: biochemical; design: a DNA fragment of 1.2 Kb containing the entire coding region of 20α-HSD; GST (E. coli preparation only; removed with thrombin) (N, cleaved yes); made in house; host or cells: E. coli DH5α (pGEX-4T-2) and Sf-9 insect cells (baculovirus, pBlueBacIII); settings: for concentration at which enzyme activity reached saturation / maximal activity: bacterially expressed enzyme, other reactant fixed (NADP 1 mM or 20α-hydroxyprogesterone 100 μM)
# Text: The data were transformed into a reciprocal Lineweaver-Burk plot to calculate the Km and maximum velocity (Vmax) values.
# recombinant 20α-HSD [3] = target: T1, recombinant 20α-HSD; assay: Aldo-keto (aldose/aldehyde) reductase activity, spectrophotometric NADPH oxidation at 340 nm; format: biochemical; design: a DNA fragment of 1.2 Kb containing the entire coding region of 20α-HSD; GST (E. coli preparation only; removed with thrombin) (N, cleaved yes); made in house; host or cells: E. coli DH5α (pGEX-4T-2) and Sf-9 insect cells (baculovirus, pBlueBacIII); settings: for activity relative to that observed with 20α-hydroxyprogesterone: maximal activity among aldose/aldehyde reductase substrates; for reduction of substrate by 20α-HSD (in words): purified recombinant 20α-HSD proteins
# Experimental: Aldo-keto reductase activity of the recombinant 20α-HSD was assayed spectrophotometrically by measuring the rate of oxidation of NADPH at 340 nm at 37° C. using a saturating concentration of benzaldehyde, 2-nitrobenzaldehyde, D,L -glyceraldehyde methylgloxal, 9,10-phenanthrequinone or ^D -galactose [Azhar et al., Biochemistry 26:7047-7057 (1987)].
# [4] = substrate: NC(=O)c1ccc[n+]([C@@H]2O[C@H](COP(=O)([O-])OP(=O)(O)OC[C@H]3O[C@@H](n4cnc5c(N)ncnc54)[C@H](OP(=O)(O)O)[C@@H]3O)[C@@H](O)[C@H]2O)c1; assay: purified protein, by the assay type
# [5] = substrate: C[C@H](O)[C@H]1CC[C@H]2[C@@H]3CCC4=CC(=O)CC[C@]4(C)[C@H]3CC[C@]12C; assay: Steady state kinetic constants (Lineweaver-Burk); format: biochemical, rat
# recombinant 20α-HSD [6] = target: T1, recombinant 20α-HSD; assay: 20α-HSD enzyme activity: conversion of [3H]20α-hydroxyprogesterone to [3H]progesterone; format: biochemical; design: a DNA fragment of 1.2 Kb containing the entire coding region of 20α-HSD; GST (E. coli preparation only; removed with thrombin) (N, cleaved yes); made in house; host or cells: E. coli DH5α (pGEX-4T-2) and Sf-9 insect cells (baculovirus, pBlueBacIII); settings: for Mean Specific Activity ± SE: purified recombinant enzyme, Table 3
# Experimental: as §1
# [7] = other: enzyme expressed in E. coli, other reactant fixed (NADP 1 mM or 20α-hydroxyprogesterone 100 μM)
# [8] = other: enzyme expressed in Sf-9 cells (baculovirus)
molecule,measurement,setting,value
"C[C@H](O)[C@H]1CC[C@H]2[C@@H]3CCC4=CC(=O)CC[C@]4(C)[C@H]3CC[C@]12C [20α-Hydroxyprogesterone, 20α-hydroxy-pregn-4-ene-3-one]","Recombinant 20α HSD activity, expressed in E. coli",recombinant 20α-HSD [1],321 nmol/min/mg protein
same,"Recombinant 20α HSD activity, expressed in Sf-9 cells",recombinant 20α-HSD [1],250 nmol/min/mg protein
same,concentration at which enzyme activity reached saturation / maximal activity,recombinant 20α-HSD [2],around 10 μM
CC(=O)[C@H]1CC[C@H]2[C@@H]3CCC4=CC(=O)CC[C@]4(C)[C@H]3CC[C@]12C [Progesterone],"Recombinant 20α HSD activity, expressed in E. coli",recombinant 20α-HSD [1],459 nmol/min/mg protein
same,"Recombinant 20α HSD activity, expressed in Sf-9 cells",recombinant 20α-HSD [1],352 nmol/min/mg protein
O=Cc1ccccc1 [Benzaldehyde],activity relative to that observed with 20α-hydroxyprogesterone,recombinant 20α-HSD [3],approximately a third
same,reduction of substrate by 20α-HSD (in words),recombinant 20α-HSD [3],very efficiently
C[C@]12C[C@H](O)[C@H]3[C@@H](CCC4=CC(=O)CC[C@@]43C)[C@@H]1CC[C@@H]2C(=O)CO [Corticosterone],action of recombinant 20α-HSD on substrate (in words),recombinant 20α-HSD [1],did not act on
C[C@]12CCC(=O)C[C@@H]1CC[C@@H]1[C@@H]2CC[C@]2(C)[C@@H](O)CC[C@@H]12 [5α-dihydrotestosterone],action of recombinant 20α-HSD on substrate (in words),recombinant 20α-HSD [1],did not act on
O=Cc1ccc([N+](=O)[O-])cc1 [4-Nitrobenzaldehyde],reduction of substrate by 20α-HSD (in words),recombinant 20α-HSD [3],very efficiently
NC(=O)c1ccc[n+]([C@@H]2O[C@H](COP(=O)([O-])OP(=O)(O)OC[C@H]3O[C@@H](n4cnc5c(N)ncnc54)[C@H](OP(=O)(O)O)[C@@H]3O)[C@@H](O)[C@H]2O)c1 [NADP],concentration at which enzyme activity reached saturation / maximal activity,recombinant 20α-HSD [2],about 100 μM
"O=CC(O)CO (racemic) [D,L -Glyceraldehyde]",activity relative to that observed with 20α-hydroxyprogesterone,recombinant 20α-HSD [3],approximately a third
same,reduction of substrate by 20α-HSD (in words),recombinant 20α-HSD [3],very efficiently
CC(=O)[C@@]1(O)CC[C@H]2[C@@H]3CCC4=CC(=O)CC[C@]4(C)[C@H]3CC[C@@]21C [17α-Hydroxyprogesterone],"Recombinant 20α HSD activity, expressed in E. coli",recombinant 20α-HSD [1],97 nmol/min/mg protein
same,"Recombinant 20α HSD activity, expressed in Sf-9 cells",recombinant 20α-HSD [1],85 nmol/min/mg protein
"recombinant 20α-HSD (Rattus norvegicus) (protein, a DNA fragment of 1.2 Kb containing the entire coding region of 20α-HSD; GST (E. coli preparation only; removed with thrombin) (N, cleaved yes); made in house; host or cells: E. coli DH5α (pGEX-4T-2) and Sf-9 insect cells (baculovirus, pBlueBacIII)) MNSKIQKMELNDGHSIPVLGFGTYATEENLRKKSMESTKIAIDVGFRHIDCSHLYQNEEEIGQAIVSKIEDGTVKREDIFYTSKLWSTSHRPELVRPSLENSLRKLNLDYVDLYLIHFPVSLKPGDELLPQDEHGNLILDTVDLCDTWEAMEKCKDAGLAKSIGVSNFNRRQLEKILNKPGLKHRPVCNQVECHLYLNQSKLLAYCKMNDIVLVAYGALGTQRYKYCINEDTPVLLDDPILCTMAKKYKRTPALIALRYQLERGIVTLVKSFNEERIRENLQVFDFQLASDDMEILDNLDRNLRYFPANMFKAHPNFPFSDEY",Km,[4]; [7],9.5 µM
same,Km,[4]; [8],9.6 µM
same,Km,[5]; [7],5.9 µM
same,Km,[5]; [8],5.8 µM
"recombinant 20α-HSD expressed in Sf-9 cells: rat 20α-HSD expressed in baculovirus-infected Sf-9 insect cells and purified (protein, UniProt P51652 1-323, looked up, expressed in baculovirus Sf-9 cells, rat 20α-HSD expressed in baculovirus-infected Sf-9 insect cells and purified) Aldo-keto reductase family 1 …: MNSKIQKMELNDGHSIPVLGFGTYATEENLRKKSMESTKIAIDVGFRHIDCSHLYQNEEEIGQAIVSKIEDGTVKREDIFYTSKLWSTSHRPELVRPSLENSLRKLNLDYVDLYLIHFPVSLKPGDELLPQDEHGNLILDTVDLCDTWEAMEKCKDAGLAKSIGVSNFNRRQLEKILNKPGLKHRPVCNQVECHLYLNQSKLLAYCKMNDIVLVAYGALGTQRYKYCINEDTPVLLDDPILCTMAKKYKRTPALIALRYQLERGIVTLVKSFNEERIRENLQVFDFQLASDDMEILDNLDRNLRYFPANMFKAHPNFPFSDEY",Mean Specific Activity ± SE,recombinant 20α-HSD [6],259 ± 36 nmol/min - mg protein
"recombinant 20α-HSD expressed in E. coli: rat 20α-HSD expressed as GST fusion in E. coli DH5α, thrombin-cleaved and purified (protein, UniProt P51652 1-323, looked up, expressed in E. coli; GST tag thrombin-cleaved, rat 20α-HSD expressed as GST fusion in E. coli DH5α, thrombin-cleaved and purified) Aldo-keto reductase family 1 …: MNSKIQKMELNDGHSIPVLGFGTYATEENLRKKSMESTKIAIDVGFRHIDCSHLYQNEEEIGQAIVSKIEDGTVKREDIFYTSKLWSTSHRPELVRPSLENSLRKLNLDYVDLYLIHFPVSLKPGDELLPQDEHGNLILDTVDLCDTWEAMEKCKDAGLAKSIGVSNFNRRQLEKILNKPGLKHRPVCNQVECHLYLNQSKLLAYCKMNDIVLVAYGALGTQRYKYCINEDTPVLLDDPILCTMAKKYKRTPALIALRYQLERGIVTLVKSFNEERIRENLQVFDFQLASDDMEILDNLDRNLRYFPANMFKAHPNFPFSDEY",average specific activity of the purified preparations,recombinant 20α-HSD [6]; purified enzyme from bacterial expression system,332 ±47 nmol/min/mg protein
same,Mean Specific Activity ± SE,recombinant 20α-HSD [6],332 ± 47 nmol/min - mg protein
same,Vmax values higher than those of 20α-HSD expressed in insect cells,recombinant 20α-HSD [2]; similar assay conditions,20-30%
